Test results from patent US20240246942A1, “KINASE INHIBITORS FOR THE TREATMENT OF NEURODEGENERATIVE DISEASES” (priority 2020, published 2024).

Experiments:
Assay in all cases: biochemical
[1] = biological target: T1, panel of 374 wild-type kinases (Homo sapiens, UniProt P29317); details: read-out: % Enzyme Activity (relative to DMSO controls), EPHA2
T1 construct: purchased Reaction Biology Corporation

[2] = biological target: T2, panel of 374 wild-type kinases (Homo sapiens, UniProt P36888); details: read-out: % Enzyme Activity (relative to DMSO controls), FLT3
T2 construct: purchased Reaction Biology Corporation
T2 sequence (P36888 27-993): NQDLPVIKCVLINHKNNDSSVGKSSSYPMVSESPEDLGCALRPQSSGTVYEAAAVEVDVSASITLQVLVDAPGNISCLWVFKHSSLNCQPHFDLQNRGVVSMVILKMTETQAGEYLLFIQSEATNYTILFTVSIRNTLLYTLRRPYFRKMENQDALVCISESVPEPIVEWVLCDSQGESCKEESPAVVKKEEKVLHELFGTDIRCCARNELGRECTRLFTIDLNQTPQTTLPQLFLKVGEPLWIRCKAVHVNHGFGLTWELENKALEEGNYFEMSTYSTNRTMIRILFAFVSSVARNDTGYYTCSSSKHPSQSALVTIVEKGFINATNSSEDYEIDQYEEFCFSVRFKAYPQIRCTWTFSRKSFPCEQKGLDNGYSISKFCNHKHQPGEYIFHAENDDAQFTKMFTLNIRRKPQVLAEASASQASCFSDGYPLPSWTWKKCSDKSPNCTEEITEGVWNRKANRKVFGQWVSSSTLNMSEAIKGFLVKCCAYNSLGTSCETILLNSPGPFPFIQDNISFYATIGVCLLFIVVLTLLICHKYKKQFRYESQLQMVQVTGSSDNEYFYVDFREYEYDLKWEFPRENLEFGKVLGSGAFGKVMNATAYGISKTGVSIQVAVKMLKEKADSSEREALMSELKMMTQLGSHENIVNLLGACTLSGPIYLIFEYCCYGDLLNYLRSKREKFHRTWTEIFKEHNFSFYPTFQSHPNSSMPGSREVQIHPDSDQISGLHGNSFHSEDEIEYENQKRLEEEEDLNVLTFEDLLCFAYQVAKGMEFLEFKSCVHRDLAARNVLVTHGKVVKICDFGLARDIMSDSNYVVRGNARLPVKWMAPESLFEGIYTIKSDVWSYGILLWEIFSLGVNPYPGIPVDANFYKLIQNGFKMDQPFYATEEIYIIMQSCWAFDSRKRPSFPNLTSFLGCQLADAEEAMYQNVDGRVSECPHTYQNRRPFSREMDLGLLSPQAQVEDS

[3] = biological target: T3, panel of 374 wild-type kinases (Homo sapiens, UniProt P52333); details: read-out: % Enzyme Activity (relative to DMSO controls), JAK3
T3 construct: purchased Reaction Biology Corporation
T3 sequence (P52333 1-1124): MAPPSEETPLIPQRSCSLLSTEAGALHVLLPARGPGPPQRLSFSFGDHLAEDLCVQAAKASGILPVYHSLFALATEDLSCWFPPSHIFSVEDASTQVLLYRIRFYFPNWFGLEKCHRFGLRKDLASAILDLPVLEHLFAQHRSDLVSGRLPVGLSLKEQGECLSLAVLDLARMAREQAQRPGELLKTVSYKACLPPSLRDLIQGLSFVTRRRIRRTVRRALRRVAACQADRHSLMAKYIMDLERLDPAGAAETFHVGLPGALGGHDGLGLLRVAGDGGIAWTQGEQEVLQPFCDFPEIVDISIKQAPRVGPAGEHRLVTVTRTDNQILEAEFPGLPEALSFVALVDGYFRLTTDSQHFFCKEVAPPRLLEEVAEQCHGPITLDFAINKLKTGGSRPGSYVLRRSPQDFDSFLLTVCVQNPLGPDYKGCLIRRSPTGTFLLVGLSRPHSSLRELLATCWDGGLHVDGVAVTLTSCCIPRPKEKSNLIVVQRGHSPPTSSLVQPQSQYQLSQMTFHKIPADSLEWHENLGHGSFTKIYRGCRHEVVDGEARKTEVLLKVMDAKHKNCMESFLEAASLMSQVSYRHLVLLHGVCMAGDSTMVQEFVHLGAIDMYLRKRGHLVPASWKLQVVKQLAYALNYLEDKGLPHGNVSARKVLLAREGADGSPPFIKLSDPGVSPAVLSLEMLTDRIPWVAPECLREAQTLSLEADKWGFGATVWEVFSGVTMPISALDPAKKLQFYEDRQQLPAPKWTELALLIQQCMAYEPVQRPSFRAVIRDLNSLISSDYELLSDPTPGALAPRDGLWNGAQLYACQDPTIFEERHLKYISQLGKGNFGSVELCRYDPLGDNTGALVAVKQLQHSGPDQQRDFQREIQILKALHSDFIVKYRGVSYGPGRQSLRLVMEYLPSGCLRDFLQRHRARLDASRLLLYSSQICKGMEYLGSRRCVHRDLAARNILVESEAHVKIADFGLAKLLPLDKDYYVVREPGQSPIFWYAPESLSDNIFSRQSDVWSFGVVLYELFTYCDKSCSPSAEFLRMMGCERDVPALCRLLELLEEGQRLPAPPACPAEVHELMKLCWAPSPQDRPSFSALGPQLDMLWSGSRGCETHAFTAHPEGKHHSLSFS

[4] = biological target: T4, panel of 374 wild-type kinases (Homo sapiens, UniProt Q86UX6); details: read-out: % Enzyme Activity (relative to DMSO controls), kinase STK32C/YANK3
T4 construct: purchased Reaction Biology Corporation

[5] = biological target: T5, panel of 374 wild-type kinases (Homo sapiens, UniProt Q9H2G2); details: read-out: % Enzyme Activity (relative to DMSO controls), kinase SLK/STK2
T5 construct: purchased Reaction Biology Corporation

[6] = biological target: T6, panel of 374 wild-type kinases (Homo sapiens, UniProt Q9UIK4); details: read-out: % Enzyme Activity (relative to DMSO controls), DAPK2
T6 construct: purchased Reaction Biology Corporation
T6 sequence (Q9UIK4 whole entry): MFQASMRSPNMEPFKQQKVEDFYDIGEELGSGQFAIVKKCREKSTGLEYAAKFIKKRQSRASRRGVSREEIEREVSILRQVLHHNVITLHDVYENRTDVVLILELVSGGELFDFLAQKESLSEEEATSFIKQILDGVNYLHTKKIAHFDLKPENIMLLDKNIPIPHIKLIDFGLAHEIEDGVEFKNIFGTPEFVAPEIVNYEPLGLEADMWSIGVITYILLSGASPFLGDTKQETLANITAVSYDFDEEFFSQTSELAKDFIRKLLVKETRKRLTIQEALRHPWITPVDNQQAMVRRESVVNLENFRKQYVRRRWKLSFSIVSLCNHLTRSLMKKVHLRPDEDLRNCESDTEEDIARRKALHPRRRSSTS

T1 sequence (P29317 24-976): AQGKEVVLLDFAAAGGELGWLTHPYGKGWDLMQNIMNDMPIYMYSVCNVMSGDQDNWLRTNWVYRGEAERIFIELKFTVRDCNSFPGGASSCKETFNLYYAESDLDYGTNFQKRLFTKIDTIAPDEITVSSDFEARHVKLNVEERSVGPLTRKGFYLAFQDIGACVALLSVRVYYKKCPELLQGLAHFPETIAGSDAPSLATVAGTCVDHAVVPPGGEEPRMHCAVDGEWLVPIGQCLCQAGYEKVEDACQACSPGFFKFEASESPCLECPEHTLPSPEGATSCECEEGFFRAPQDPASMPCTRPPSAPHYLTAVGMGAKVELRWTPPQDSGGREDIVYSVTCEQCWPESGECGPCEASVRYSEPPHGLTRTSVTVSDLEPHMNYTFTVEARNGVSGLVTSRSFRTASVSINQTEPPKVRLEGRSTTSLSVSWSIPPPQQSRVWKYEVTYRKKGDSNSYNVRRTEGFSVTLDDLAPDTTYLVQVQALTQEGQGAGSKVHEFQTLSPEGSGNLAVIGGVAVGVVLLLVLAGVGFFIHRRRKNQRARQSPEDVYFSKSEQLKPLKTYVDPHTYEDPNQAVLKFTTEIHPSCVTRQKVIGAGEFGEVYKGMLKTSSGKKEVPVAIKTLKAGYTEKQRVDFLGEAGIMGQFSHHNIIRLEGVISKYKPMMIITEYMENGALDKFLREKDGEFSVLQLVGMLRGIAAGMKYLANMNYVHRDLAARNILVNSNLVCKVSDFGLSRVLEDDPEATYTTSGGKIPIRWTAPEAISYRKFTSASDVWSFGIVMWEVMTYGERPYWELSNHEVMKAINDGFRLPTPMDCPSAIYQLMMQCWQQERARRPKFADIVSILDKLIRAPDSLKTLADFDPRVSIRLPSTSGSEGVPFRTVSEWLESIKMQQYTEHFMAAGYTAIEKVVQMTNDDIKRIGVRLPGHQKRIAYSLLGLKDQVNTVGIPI
T5 sequence (Q9H2G2 whole entry): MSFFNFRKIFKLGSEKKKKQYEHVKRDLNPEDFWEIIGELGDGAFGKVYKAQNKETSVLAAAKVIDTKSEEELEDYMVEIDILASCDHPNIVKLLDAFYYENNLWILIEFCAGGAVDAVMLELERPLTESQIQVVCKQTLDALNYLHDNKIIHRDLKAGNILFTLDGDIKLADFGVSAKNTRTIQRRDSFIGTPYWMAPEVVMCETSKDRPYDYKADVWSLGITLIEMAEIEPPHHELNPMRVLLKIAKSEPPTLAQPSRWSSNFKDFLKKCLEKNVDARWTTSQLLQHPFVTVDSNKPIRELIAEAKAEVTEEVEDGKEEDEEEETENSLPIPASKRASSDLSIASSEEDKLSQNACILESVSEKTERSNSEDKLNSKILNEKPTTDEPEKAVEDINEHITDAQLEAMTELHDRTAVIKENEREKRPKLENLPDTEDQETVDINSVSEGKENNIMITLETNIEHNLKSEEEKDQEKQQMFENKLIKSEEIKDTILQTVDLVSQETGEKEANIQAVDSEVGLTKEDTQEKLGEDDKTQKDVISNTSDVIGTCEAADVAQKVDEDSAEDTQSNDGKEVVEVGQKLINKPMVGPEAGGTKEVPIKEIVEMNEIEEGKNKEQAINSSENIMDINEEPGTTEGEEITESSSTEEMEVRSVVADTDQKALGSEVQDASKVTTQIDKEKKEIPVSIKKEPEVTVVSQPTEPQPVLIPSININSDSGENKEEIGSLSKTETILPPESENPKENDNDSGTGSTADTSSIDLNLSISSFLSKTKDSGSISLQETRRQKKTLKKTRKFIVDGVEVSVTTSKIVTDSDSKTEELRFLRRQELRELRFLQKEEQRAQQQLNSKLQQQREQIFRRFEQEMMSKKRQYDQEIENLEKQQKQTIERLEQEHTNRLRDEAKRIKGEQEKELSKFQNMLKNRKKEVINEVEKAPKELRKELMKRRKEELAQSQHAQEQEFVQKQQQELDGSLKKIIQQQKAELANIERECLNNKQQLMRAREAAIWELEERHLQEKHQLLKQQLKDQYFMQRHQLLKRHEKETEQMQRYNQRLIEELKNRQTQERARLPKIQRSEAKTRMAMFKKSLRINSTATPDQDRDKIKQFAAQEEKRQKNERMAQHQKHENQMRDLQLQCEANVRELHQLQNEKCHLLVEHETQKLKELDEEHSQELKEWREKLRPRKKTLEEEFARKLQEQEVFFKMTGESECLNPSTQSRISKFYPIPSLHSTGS
T4 sequence (Q86UX6 whole entry): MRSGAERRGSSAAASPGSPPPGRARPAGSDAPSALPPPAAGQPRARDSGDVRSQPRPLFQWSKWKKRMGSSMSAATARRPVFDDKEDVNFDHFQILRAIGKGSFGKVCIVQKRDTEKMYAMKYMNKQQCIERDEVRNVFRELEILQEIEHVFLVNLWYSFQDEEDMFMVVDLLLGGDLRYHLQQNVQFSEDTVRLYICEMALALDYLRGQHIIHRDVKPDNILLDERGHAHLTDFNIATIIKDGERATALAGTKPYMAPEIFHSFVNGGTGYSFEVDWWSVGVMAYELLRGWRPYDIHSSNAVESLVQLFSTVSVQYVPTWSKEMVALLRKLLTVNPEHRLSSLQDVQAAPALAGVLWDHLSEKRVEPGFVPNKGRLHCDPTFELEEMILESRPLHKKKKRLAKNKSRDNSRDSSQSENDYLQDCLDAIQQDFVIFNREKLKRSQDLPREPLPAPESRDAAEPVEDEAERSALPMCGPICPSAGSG

Compound	remaining activity at 10 µM ([1]; 10 uM) [%]	remaining activity at 10 µM ([2]; 10 uM) [%]	remaining activity at 10 µM ([3]; 10 uM) [%]	remaining activity at 10 µM ([4]; 10 uM) [%]	remaining activity at 10 µM ([5]; 10 uM) [%]	remaining activity at 10 µM ([6]; 10 uM) [%]	remaining activity at 5 µM [1] [%]	remaining activity at 5 µM [2] [%]	remaining activity at 5 µM [3] [%]	remaining activity at 5 µM [4] [%]	remaining activity at 5 µM [5] [%]	remaining activity at 5 µM [6] [%]
Cc1sc(C(=O)NC2COC2)cc1-n1cc(NC(=O)Nc2c(F)cccc2Cl)cn1 [Compound 27, 4-(4-(3-(2-chloro-6-fluorophenyl)ureido)-1H-pyrazol-1-yl)-5-methyl-N-(oxetan-3-yl)thiophene-2-carboxamide]	102	69.1	96.7	112	99.7	99.5						
O=C(Nc1cnn(-c2csc(C(=O)NC3COC3)c2)c1)Nc1c(F)cccc1Cl [Compound 25, 4-(4-(3-(2-chloro-6-fluorophenyl)ureido)-1H-pyrazol-1-yl)-N-(oxetan-3-yl)thiophene-2-carboxamide]							97.9	99.2	98.7	90.7	95	102
O=C(Nc1cnn(-c2csc(C(=O)NC3COC3)c2)c1)Nc1ccccc1Cl [Compound 17, 4-(4-(3-(2-chlorophenyl)ureido)-1H-pyrazol-1-yl)-N-(oxetan-3-yl)thiophene-2-carboxamide]							101	89.7	102	113	89.7	103
